According to patent US7648993B2, “Methods of treating disorders with Group I mGluR antagonists” (Brown University, priority 2001, dated 2010):

System: cultured hippocampal neurons
Test: Immunocytochemical localization of surface synaptic receptors (GluR2, GluR1, NR1, GABAAβ1)
Assay type: cell-based, rat
Conditions: for GluR1-positive synapses: cycloheximide 60 μM applied 15 min before DHPG where named
Excerpt: We next determined if the DHPG-induced increase in internalized AMPARs is accompanied by a net decrease in surface-expressed receptor clusters at synapses. At various intervals after DHPG washout, cells were fixed and surface GluR2 or GluR1 was labeled with N-terminal antibodies without permeabilization. The cultures were then permeabilized, and synapses were labeled using an antibody against the presynaptic marker synapsin I or synaptophysin coupled to the appropriate secondary antibody. Under control conditions, most synapses were immunoreactive for AMPAR clusters (GluR2, 80.6±9.0%; n=10 cells, 200 synapses, FIGS. 5A-D; GluR1, 72.5±4.7%; n=15 cells, 225 synapses; FIGS. 5E and F).
Following experimental treatment, low-density cultures were fixed in 4% paraformaldehyde with 4% sucrose for 5 min. Cultures were rinsed in PBS and then blocked in PBS with 20% fetal bovine serum for 1 h. Cultures were stained with N-terminal receptor antibodies overnight at 4° C. (GluR2, 1:100, Chemicon, Ternecula, California; GluR1, 1:100, gift of R. Huganir; NR1, 1:500, Chemicon MAB363; GABAAβ1, 1:100 Santa Cruz Biologicals, Santa Cruz, Calif.). Cultures were then rinsed in blocking buffer containing 0.1% Triton-X for 20 min and exposed to antibodies directed against presynaptic proteins (synapsin 1, 1:1000, Chemicon; synaptophysin, 1:100, Boehringer Manheim, Irvine, Calif.) for 1 h at room temperature. Cultures were then rinsed and exposed to the appropriate fluorescent secondary antibodies (Jackson Immunoresearch, West Grove, Pa.).
Microscopy was performed with a Nikon E800 microscope using a 60×1.4 NA objective (Melville, N.Y.). Fluorescence images were collected with a Sensys cooled CCD camera and analyzed using IP-Labs software. Additional images were collected with a Olympus Flowview confocal microscope with a 60×1.2 NA objective. All analyses were performed blind to the stimulation history of the culture. Microscopic fields had 1-3 neurons displaying smooth soma and generally healthy morphology with multiple distinct processes. Immunofluorescence was analyzed along the proximal 50 μm of 3 or more dendrites per neuron. Immunoreactive puncta were defined as discrete points along the dendrite with fluorescence intensity twice the background staining of the neuron. Five cells were analyzed per culture and 3-6 cultures were analyzed per condition. Separate controls were performed with each experiment and a Student's t-test was used to determine statistical significance. Data are expressed as puncta per 10 μm of dendrite unless stated otherwise.

Q: With `NC(C(=O)O)c1cc(O)cc(O)c1` (racemic) [DHPG, (RS)-3,5-dihydroxyphenylglycine] as the compound, how does the GluR1-positive synapses (15 min after DHPG) read?
A: The GluR1-positive synapses was 29.3±5.4%.

Q: And the NR1-positive synapses (15 minutes after DHPG treatment)?
A: Its NR1-positive synapses is 28±6%.

Q: And the “change in synapsin puncta density (in words)” value (1 h after DHPG)?
A: The value was “no change”.

Q: What about the “synapsin-labeled puncta with GABAAβ1 clusters” value (60 min after DHPG treatment) of the same compound?
A: The value was 10.9±2%.

Q: What about the GluR1-positive synapses (60 min after DHPG) of the same compound?
A: Its GluR1-positive synapses is 20.0±12.0%.

Q: What about the “synapses with surface staining for GluR2” value (1 hour after DHPG treatment) of the same compound?
A: The value was 40.8±11%.

Q: What about the NR1-positive synapses (60 minutes after DHPG treatment, with cycloheximide where named) of the same compound?
A: Its NR1-positive synapses is 21±3%.
